The results in this text go back to US5519024A, “Quinolonecarboxylic acid derivatives and their use” (Takeda Chemical Industries, Ltd., priority 1993, dated 1996).

Read-outs that look alike come from different tables or passages of the source.

For this assay, the target named is T1, GPIIb/IIIa (Homo sapiens, UniProt P05106+P08514).
T1 construct: Purification of GPIIb/IIIa from HEL cells; endogenous in cells; host or cells: HEL cells (HEL 92.1.7, ATCC TIB180); endogenous complex solubilized with Triton X-100 and purified in house
Briefly: Inhibitory activity against binding of GPIIb/IIIa and fibrinogen. Conditions: for inhibition at 10 µM / inhibition at 1 µM: read-out: GPIIb/IIIa Fibrinogen Binding Inhibitory Activity. Here is the method: Test Example 1: Inhibitory activity against binding of GPIIb/IIIa and fibrinogen
(1) Cultivation of human erythroleukemia-derived cell line (hereinafter referred to as HEL cells)
HEL cells (HEl92.1.7; ATCC No. TIB180) were purchased from ATCC (Rockville, Md., U.S.A.). The medium was RPMI medium (GIBCO Laboratories, Grand Island, N..Y, U.S.A.) containing 40 mM N-2-hydroxyethylpiperazine-N'-2-ethanesulfonic acid (hereinafter referred to as HEPES) (pH 7.0), 0.2% NaHCO3, 100 μg/ml kanamycin and 10% FCS. The cells were cultured in the presence of 5% CO2 at 37° C., with the medium replaced with a fresh medium to obtain a 4- to 5-fold dilution at intervals of 3 to 4 days.
(2) Purification of GPIIb/IIIa from HEL cells
GPIIb/IIIa was purified by a modification of the method of L. A. Fitzgerald et al. [J. Biol. Chem., 262, 3936 (1987)] as follows: All purification was conducted at room temperature, unless otherwise stated. At 7 days of cultivation, cells were collected from the HEL cell culture broth (cell suspension) by centrifugation (1,000 ×g, 10 minutes, 4° C.). After washing with 20 mM Tris-HCl (pH 7.5) containing 1 mM EDTA and 150 mM NaCl, the cells were suspended in a solubilizing buffer (20 mM Tris-HCl, 150 mM NaCl, 1% Triton X-100, 1 mM MgCl2, 1 mM CaCl2, 0.1 mM (p-amidinophenyl)methanesulfonyl fluoride (hereinafter referred to as APMSF), 10 nM leupeptin, 0.02% NaN3, pH 7.4), followed by gentle stirring at 4° C. for 30 minutes, to solubilize the GPIIb/IIIa. The suspension was centrifuged (100,000 ×g, 1 hour) at 4° C., and the cell debris removed, to yield a cell extract. The cell extract was passed through a Heparin-Sepharose CL-6B column (Pharmacia LKB) and a DEAE-Toyopearl 650M column (Tosoh), both previously equilibrated with a column buffer (20 mM Tris-HCl, 150 mM NaCl, 0.1% Triton X-100, 1 mM MgCl2, 1 mM CaCl2, 0.1 mM APMSF, 1 nM leupeptin, 0.05% NaN3, pH 7.4). The effluent was applied to a ConA-Sepharose column (Pharmacia LKB), previously equilibrated with the same column buffer as above, to adsorb the GPIIb/IIIa, followed by elution with the same column buffer but containing 0.5M methyl α-D-mannopyranoside. The eluted fraction was concentrated at 4° C. using an ultrafiltration apparatus (Amicon Corporation the fraction's molecular weight of 10,000), after which it was subjected to gel filtration through a Sephacryl S-300 column (Pharmacia LKB), previously equilibrated with the same column buffer, to yield a purified standard sample.
(3) Biotinization of human fibrinogen
Conducted by the method of I. F. Charo [I. F. Charo et al., J. Biol. Chem., 266, 1415 (1991)].
Human fibrinogen (Kabi Vitrum AB) was dissolved in PBS to 5 mg/ml and then dialyzed at 4° C. against 0.1M carbonate buffer (pH 8.2) containing 0.1M NaCl. After dialysis, insoluble substances were removed by centrifugation (100,000 ×g, 30 minutes), and the dialyzate was diluted to 1 mg/ml with the same buffer. To this dilution, sulfo-N-hydroxysuccinimidebiotin (Pierce Chemical Co.) was added to a final concentration of 0.2 mg/ml, followed by gentle mixing at room temperature for 30 minutes, to biotinize the fibrinogen. After completion of the reaction, the mixture was dialyzed against 0.05M Tris-HCl buffer (pH 7.4) containing 0.1M NaCl and 0.05% NaN3.
(4) Determination of inhibitory activity against fibrinogen binding
Conducted by a modification of the method of I. F. Charo [I. F. Charo et al., J. Biol. Chem., 266, 1415 (1991)] as follows: The purified GPIIb/IIIa was diluted to 1 μg/ml with buffer A (20 mM Tris-HCl, 150 mM NaCl, 1 mM CaCl2, 0.02% NaN3, pH 7.4). A 100 μl aliquot of this dilution was dispensed to a 96-well microplate (Maxisorp, produced by Nunc), and the plate kept standing at 4° C., to adsorb the GPIIb/IIIa to the microplate. Next, 150 μl of buffer B (35 mg/ml BSA, 50 mM Tris-HCl, 100 mM NaCl, 2 mM CaCl2, 0.02% NaN3, pH 7.4) was added, followed by 2 hours of blocking at 30° C. […]

T1 sequence (P08514 32-887 limits assumed): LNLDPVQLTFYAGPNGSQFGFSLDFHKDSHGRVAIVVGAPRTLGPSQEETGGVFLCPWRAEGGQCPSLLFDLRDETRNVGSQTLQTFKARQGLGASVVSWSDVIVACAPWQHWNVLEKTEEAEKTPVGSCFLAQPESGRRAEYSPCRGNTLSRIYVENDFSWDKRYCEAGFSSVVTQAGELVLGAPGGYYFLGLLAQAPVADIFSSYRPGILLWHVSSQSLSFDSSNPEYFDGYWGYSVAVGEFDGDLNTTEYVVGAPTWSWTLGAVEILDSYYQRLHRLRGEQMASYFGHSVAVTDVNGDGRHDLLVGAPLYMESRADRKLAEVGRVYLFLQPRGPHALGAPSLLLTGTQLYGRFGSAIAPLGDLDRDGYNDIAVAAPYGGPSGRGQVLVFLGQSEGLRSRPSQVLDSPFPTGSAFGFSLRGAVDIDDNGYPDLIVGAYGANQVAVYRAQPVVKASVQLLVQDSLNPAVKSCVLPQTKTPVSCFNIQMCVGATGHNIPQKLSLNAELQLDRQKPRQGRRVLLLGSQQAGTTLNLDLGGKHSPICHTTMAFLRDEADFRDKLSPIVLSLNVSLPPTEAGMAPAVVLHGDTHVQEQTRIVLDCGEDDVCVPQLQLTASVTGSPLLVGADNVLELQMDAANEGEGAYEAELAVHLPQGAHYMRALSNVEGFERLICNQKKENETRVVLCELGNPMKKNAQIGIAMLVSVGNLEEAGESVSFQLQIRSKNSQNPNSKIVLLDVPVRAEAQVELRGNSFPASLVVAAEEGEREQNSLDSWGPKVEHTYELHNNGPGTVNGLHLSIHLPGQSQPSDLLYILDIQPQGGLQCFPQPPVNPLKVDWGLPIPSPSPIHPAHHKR
T1 sequence (P08514 891-1039 limits assumed): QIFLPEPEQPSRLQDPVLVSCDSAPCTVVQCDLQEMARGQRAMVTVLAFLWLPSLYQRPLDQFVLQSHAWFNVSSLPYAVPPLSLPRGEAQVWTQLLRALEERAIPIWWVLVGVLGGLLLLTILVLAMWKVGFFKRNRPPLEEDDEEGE
T1 sequence (P05106 27-788): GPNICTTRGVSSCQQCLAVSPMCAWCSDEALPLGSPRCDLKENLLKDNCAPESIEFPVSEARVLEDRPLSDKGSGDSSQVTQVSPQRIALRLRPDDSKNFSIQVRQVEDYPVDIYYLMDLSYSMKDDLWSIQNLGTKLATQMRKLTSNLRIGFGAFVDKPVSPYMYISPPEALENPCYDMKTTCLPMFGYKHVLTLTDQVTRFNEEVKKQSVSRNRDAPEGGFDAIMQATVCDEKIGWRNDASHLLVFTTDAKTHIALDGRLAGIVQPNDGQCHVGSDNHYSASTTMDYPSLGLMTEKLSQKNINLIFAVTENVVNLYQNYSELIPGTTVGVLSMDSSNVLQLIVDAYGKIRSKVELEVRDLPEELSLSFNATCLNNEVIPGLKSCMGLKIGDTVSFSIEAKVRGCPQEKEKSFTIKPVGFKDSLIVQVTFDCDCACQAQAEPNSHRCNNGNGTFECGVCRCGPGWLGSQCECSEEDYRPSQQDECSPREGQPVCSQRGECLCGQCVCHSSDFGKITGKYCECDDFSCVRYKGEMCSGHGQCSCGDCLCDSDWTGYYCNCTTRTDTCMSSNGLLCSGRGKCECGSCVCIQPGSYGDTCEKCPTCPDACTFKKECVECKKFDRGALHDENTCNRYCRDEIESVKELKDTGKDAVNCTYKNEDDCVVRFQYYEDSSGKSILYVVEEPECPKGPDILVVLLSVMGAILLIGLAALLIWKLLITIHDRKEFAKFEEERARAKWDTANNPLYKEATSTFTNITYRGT

Take `O=C(O)c1cn(Cc2ccncc2)c2c(F)c(N3CCNCC3)c(F)cc2c1=O` [Compound 75, 6,8-Difluoro-7-(1-piperazinyl)-1-(4-pyridylmethyl)-1,4-dihydro-4-oxoquinoline-3-carboxylic acid]: the inhibition at 10 µM (Table 2, 10^-5 M) stood at 100%. Also, under “Table 2, 10^-6 M”, the inhibition at 1 µM amounted to 100%.

For `O=C(O)c1cn(Cc2nccs2)c2c(F)c(N3CCN(c4ccncc4)CC3)c(F)cc2c1=O` [Compound 64], where the note is “Table 2, 10^-5 M”, the inhibition at 10 µM came to 100%. Also, for the setting “Table 2, 10^-6 M”, the inhibition at 1 µM is 100%.

Turning to `O=C(O)c1cn(Cc2nccs2)c2c(F)c(N3CCN(c4cccnc4)CC3)c(F)cc2c1=O` [Compound 66], the inhibition at 10 µM (Table 2, 10^-5 M) was determined as 100%. The inhibition at 1 µM (Table 2, 10^-6 M) worked out at 86.7%.

For `O=C(O)c1cn(C2CC2)c2c(F)c(N3Cc4ccccc4C(CO)C3)c(F)cc2c1=O` (stereo not shown) [Compound 36], the inhibition at 10 µM (Table 2, 10^-5 M) was found to be 56%. Moreover, the inhibition at 1 µM (Table 2, 10^-6 M) was 36.3%.

As to `CCn1cc(C(=O)O)c(=O)c2cc(F)c(N3CCNCC3)cc21` [Norfloxacin, reference compound], under “Table 1, 1 × 10^-5 M”, the inhibition at 10 µM was found to be 77.4%. Besides, under “Table 1, 1 × 10^-6 M”, the inhibition at 1 µM was 38.7%.

Regarding `Cc1cnc2n1CCN(c1c(F)cc3c(=O)c(C(=O)O)cn(C4CC4)c3c1F)C2` [Compound 29], the inhibition at 10 µM (Table 2, 10^-5 M) was determined as 68.7%. The inhibition at 1 µM (Table 2, 10^-6 M) worked out at 38.4%.

Take `O=C(O)c1cn(-c2ccncc2)c2c(F)c(N3CCNCC3)c(F)cc2c1=O` [Compound 54]: the inhibition at 10 µM (Table 2, 10^-5 M) came out at 50.1%. The inhibition at 1 µM (Table 2, 10^-6 M) stood at 21%.

For `O=C(O)c1cn(C2CCc3ccccc32)c2c(F)c(N3CCNCC3)c(F)cc2c1=O` (stereo not shown) [Compound 46, 6,8-Difluoro-1-(indan-1-yl)-7-(piperazin-1-yl) 1,4-dihydro-4-oxoquinoline-3-carboxylic acid], the inhibition at 1 µM (Table 2, 10^-6 M) was determined as 41.6%.

As for `CC(=O)N1CC(n2cc(C(=O)O)c(=O)c3cc(F)c(N4CCN(C)CC4)c(F)c32)C1` [Compound 15], the inhibition at 10 µM (Table 2, 10^-5 M) was 60.5%. Besides, for the setting “Table 2, 10^-6 M”, the inhibition at 1 µM is 33.9%.

On to `NC(=O)OCCn1cc(C(=O)O)c(=O)c2cc(F)c(N3CCNCC3)c(F)c21` [Compound 11, 1-(2-Carbamoyloxyethyl)-6,8-difluoro-7-(1-piperazinyl)1,4-dihydro-4-oxoquinoline-3-carboxylic acid], for which the inhibition at 10 µM (Table 2, 10^-5 M) turned out to be 96.8%. For the setting “Table 2, 10^-6 M”, the inhibition at 1 µM was 84.3%.

As to `CN(C)CCn1cc(C(=O)O)c(=O)c2cc(F)c(N3CCN(C)CC3)cc21` [Compound 13], the inhibition at 10 µM (Table 2, 10^-5 M) was found to be 70.5%. Also, the inhibition at 1 µM (Table 2, 10^-6 M) was 54.7%.

`COc1cccc(Cn2cc(C(=O)O)c(=O)c3cc(F)c(N4CCC(C5CCNCC5)CC4)c(F)c32)c1` [Compound 80, 6,8-Difluoro-1-(3-methoxybenzyl)-7-[4-(4-piperidinyl)piperidin-1-yl]-1,4-dihydro-4-oxoquinoline-3-carboxylic acid]: the inhibition at 10 µM (Table 2, 10^-5 M) is 100%. Also, the inhibition at 1 µM (Table 2, 10^-6 M) amounted to 100%.

As to `NC1CCN(c2nc3c(cc2F)c(=O)c(C(=O)O)cn3-c2ccc(F)cc2F)C1` (stereo not shown) [Tosufloxacin, reference compound], under “Table 1, 1 × 10^-5 M”, the inhibition at 10 µM came out at 37.6%. Besides, the inhibition at 1 µM (Table 1, 1 × 10^-6 M) turned out to be 30.7%.

On to `CNCCN(C)c1nc2c(cc1F)c(=O)c(C(=O)O)cn2C1CC1` [Compound 20], for which the inhibition at 10 µM (Table 2, 10^-5 M) is 59.4%. Moreover, the inhibition at 1 µM (Table 2, 10^-6 M) is 12%.

For the compound `O=C(O)c1cn(Cc2ccc(F)cc2)c2c(F)c(N3CCC(C4CCNCC4)CC3)c(F)cc2c1=O` [Compound 78, 6,8-Difluoro-1-(4-fluorobenzyl)-7-[4-(4-piperidinyl)piperidin-1-yl]-1,4-dihydro-4-oxoquinoline-3-carboxylic acid], the inhibition at 10 µM (Table 2, 10^-5 M) came to 98.1%. For the same compound, the inhibition at 1 µM (Table 2, 10^-6 M) came out at 100%.

Turning to `CCN1CCCC1CNc1c(F)cc2c(=O)c(C(=O)O)cn(C3CC3)c2c1F` (stereo not shown) [Compound 24], the inhibition at 10 µM (Table 2, 10^-5 M) is 50%. Further, for the setting “Table 2, 10^-6 M”, the inhibition at 1 µM was found to be 24.9%.

As to `COn1cc(C(=O)O)c(=O)c2cc(F)c(N3CCn4ccnc4C3)c(F)c21` [Compound 45], the inhibition at 10 µM (Table 2, 10^-5 M) turned out to be 59.9%. In addition, where the note is “Table 2, 10^-6 M”, the inhibition at 1 µM worked out at 31.4%.

As to `CCn1cc(C(=O)O)c(=O)c2cc(F)c(N3CCN(c4ccncc4)CC3)cc21` [Compound 3, 1-Ethyl-6-fluoro-7-[4-(4-pyridyl)piperazin-1-yl]-1,4-dihydro-4-oxoquinoline-3-carboxylic acid], where the note is “Table 2, 10^-5 M”, the inhibition at 10 µM stood at 82.2%. Under “Table 2, 10^-6 M”, the inhibition at 1 µM is 57.1%.

Turning to `CCn1cc(C(=O)O)c(=O)c2cc(F)c(SC3CCN(C)CC3)cc21` [Compound 5], the inhibition at 10 µM (Table 2, 10^-5 M) stood at 60.3%. Besides, the inhibition at 1 µM (Table 2, 10^-6 M) amounted to 26%.

With `O=C(O)c1cn(C2CC2)c2c(F)c(N3CCN4CCC[C@@H]4C3)c(F)cc2c1=O` [Compound 33], the “GPIIb/IIIa Fibrinogen Binding Inhibitory Activity” value reads like this: (Table 2, 10^-5 M) 68.3%; (Table 2, 10^-6 M) 33.6%.

With `CN(C)CCN(C)c1nc2c(cc1F)c(=O)c(C(=O)O)cn2C1CC1` [Compound 21], the inhibition at 10 µM (Table 2, 10^-5 M) was determined as 69.9%. Besides, the inhibition at 1 µM (Table 2, 10^-6 M) came out at 31.3%.

Turning to `O=C(O)c1cn(Cc2cscn2)c2c(F)c(N3CCN(c4ccncc4)CC3)c(F)cc2c1=O` [Compound 73, 6,8-Difluoro-7-[4-(4-pyridyl)piperazine-1-yl]-1-(4-thiazolylmethyl)-1,4-dihydro-4-oxoquinoline-3-carboxylic acid], where the note is “Table 2, 10^-5 M”, the inhibition at 10 µM is 100%. Moreover, where the note is “Table 2, 10^-6 M”, the inhibition at 1 µM worked out at 100%.

Regarding `CN1CCN(C(=O)CCCNc2c(F)cc3c(=O)c(C(=O)O)cn(C4CC4)c3c2F)CC1` [Compound 42], the inhibition at 10 µM (Table 2, 10^-5 M) came to 67.3%. Besides, under “Table 2, 10^-6 M”, the inhibition at 1 µM was found to be 38.6%.

On to `CN(C)CCOC1CCN(c2c(F)cc3c(=O)c(C(=O)O)cn(Cc4nccs4)c3c2F)C1` (stereo not shown) [Compound 62], for which the inhibition at 10 µM (Table 2, 10^-5 M) was determined as 100%. The inhibition at 1 µM (Table 2, 10^-6 M) was determined as 100%.

Take `CC(=O)NCCN1CCN(c2c(F)cc3c(=O)c(C(=O)O)cn(Cc4nccs4)c3c2F)CC1` [Compound 69]: where the note is “Table 2, 10^-5 M”, the inhibition at 10 µM turned out to be 100%. Also, the inhibition at 1 µM (Table 2, 10^-6 M) is 92.2%.

For `CN(C)Cc1cn2c(n1)CN(c1c(F)cc3c(=O)c(C(=O)O)cn(C4CC4)c3c1F)CC2` [Compound 28, 1-Cyclopropyl-6,8-difluoro-7-(2-dimethylaminomethyl-5,6,7,8-tetrahydroimidazo[1,2-a]pyrazin-7-yl)-1,4-dihydro-4-oxoquinoline-3-carboxylic acid], for the setting “Table 2, 10^-5 M”, the inhibition at 10 µM is 95.8%. Where the note is “Table 2, 10^-6 M”, the inhibition at 1 µM is 73.3%.

Consider `CN1CCN(c2c(F)cc3c(=O)c(C(=O)O)cn(C)c3c2F)CC1` [Compound 1], for which the inhibition at 10 µM (Table 2, 10^-5 M) came to 70.7%. In addition, the inhibition at 1 µM (Table 2, 10^-6 M) was determined as 48.6%.

As to `O=C(O)c1cn(Cc2nccs2)c2c(F)c(N3CCN(CCO)CC3)c(F)cc2c1=O` [Compound 71], for the setting “Table 2, 10^-5 M”, the inhibition at 10 µM came to 100%. The inhibition at 1 µM (Table 2, 10^-6 M) stood at 100%.
